Clc1cccnc1Cl
solubility (mole fraction)
Conditions | 278.15 K | 283.15 K | 288.15 K | 293.15 K | 298.15 K | 303.15 K | 308.15 K | 313.15 K
in 1,4-dioxane | – | – | 0.241 | 0.285 | 0.332 | 0.382 | 0.442 | 0.514
in acetonitrile | 0.061 | 0.0806 | 0.108 | 0.137 | 0.178 | 0.23 | 0.295 | 0.389
in cyclohexane | – | 0.0334 | 0.045 | 0.061 | 0.0796 | 0.106 | 0.145 | 0.187
in dichloromethane | 0.213 | 0.238 | 0.27 | 0.304 | 0.346 | 0.386 | 0.432 | 0.489
in ethanol | 0.0314 | 0.0418 | 0.0558 | 0.071 | 0.0902 | 0.115 | 0.145 | 0.188
in ethyl acetate | 0.166 | 0.194 | 0.223 | 0.259 | 0.302 | 0.349 | 0.398 | 0.46
in isobutanol | 0.0394 | 0.0507 | 0.0654 | 0.0836 | 0.108 | 0.14 | 0.18 | 0.232
in isopropanol | 0.032 | 0.0401 | 0.0532 | 0.0687 | 0.0895 | 0.117 | 0.154 | 0.2
in methanol | 0.0181 | 0.0259 | 0.0362 | 0.0505 | 0.0676 | 0.0943 | 0.129 | 0.178
in methyl acetate | 0.146 | 0.172 | 0.203 | 0.237 | 0.28 | 0.321 | 0.374 | 0.425
in n-butanol | 0.0489 | 0.0607 | 0.0798 | 0.0983 | 0.123 | 0.155 | 0.197 | 0.249
in n-butyl acetate | 0.185 | 0.213 | 0.246 | 0.282 | 0.324 | 0.372 | 0.424 | 0.487
in n-hexane | 0.0154 | 0.0216 | 0.029 | 0.0387 | 0.0516 | 0.0684 | 0.0906 | 0.123
in n-propanol | 0.0378 | 0.0479 | 0.0606 | 0.0804 | 0.1 | 0.129 | 0.164 | 0.211

— BigSolDB 2.1
